Columns and labels:
[1] = test system: Male spontaneously hypertensive rats (SHR), arterial blood pressure; assay: Depressor response after intraduodenal administration (1 mg/kg), Table 2; type: in vivo, rat; details: for Half-life: '120<' means greater than 120
Protocol: Arterial blood pressure was measured through the catherized artery with a pressure transducer (MPU-0.5, manufactured by Nihon Kohden Kabushiki Kaisha). The catheter was inserted into the abdominal aorta via the median coccygcal artery of SHR under light ether anesthesia. The recordings were made on a rectigraph (manufactured by Sanei Sokki Kabushiki Kaisha). The 1,4-dihydropyridine derivatives prepared in the foregoing examples were administered with catheter which was inserted previously into the caudal vein or duodenum at least two hours after the operation. SHR were restrained with wire mesh cage immediately after the operation.

[2] = test system: Male spontaneously hypertensive rats (SHR), arterial blood pressure; assay: Depressor response after intravenous administration (30 μg/kg), Table 1; type: in vivo, rat; details: for Duration: '90<' means greater than 90
Protocol: Male spontaneously hypertensive rats (SHR) which had mean arterial blood pressures higher than 140 mmHg were used for the experiments. Arterial blood pressure was measured through the catherized artery with a pressure transducer (MPU-0.5, manufactured by Nihon Kohden Kabushiki Kaisha). The catheter was inserted into the abdominal aorta via the median coccygcal artery of SHR under light ether anesthesia. The recordings were made on a rectigraph (manufactured by Sanei Sokki Kabushiki Kaisha). The 1,4-dihydropyridine derivatives prepared in the foregoing examples were administered with catheter which was inserted previously into the caudal vein or duodenum at least two hours after the operation. SHR were restrained with wire mesh cage immediately after the operation. Each derivative to be tested was dissolved in 1.5% PVP/ethanol, and then diluted with 0.9% saline or intravenous administration (30 μg/kg), or suspended in 5% gum arabic solution of intraduodenal administration (1 mg/kg).

| Molecule | The time to reach the lowest BP [1] [min] | ΔBP (Maximum depressor response) [1] [mmHg] | Half-life [1] [h] | The time to reach the lowest BP [2] [min] | ΔBP (Maximum depressor response) [2] [mmHg] | Duration [2] [min] |
| --- | --- | --- | --- | --- | --- | --- |
| 1-methyl-3-thienyl-2-propenyl methyl 4-(3-nitrophenyl)-2,6-dimethyl-1,4-dihydropyridine-3,5-dicarboxylate [Example 36] | 130 | 59 | > 4 | 25.0 | 69 | > 220 |
| 4-(4-methoxyphenyl)-3-butenyl methyl 4-(3-nitrophenyl)-2,6-dimethyl-1,4-dihydropyridine-3,5-dicarboxylate [Example 18] | 37 | 18 | 2 | – | – | – |
| C=CCOC(=O)C1=C(C)NC(C)=C(C(=O)OC)C1c1cccc([N+](=O)[O-])c1 (stereo not shown) [C, 4(3-nitrophenyl)-2,6-dimethyl-1,4-dihydropyridine-3,5-dicarboxylic aci 3methyl ester 5allyl ester, reference compound] | 8 | 20 | 0.333 | – | – | – |
| C#CCOC(=O)C1=C(C)NC(C)=C(C(=O)OC)C1c1cccc([N+](=O)[O-])c1 (stereo not shown) [D, 4(3-nitrophenyl)-2,6-dimethyl-1,4-dihydropyridine-3,5-dicarboxylic aci 3methyl ester 5propargyl ester, reference compound] | – | 0 | – | – | – | – |
| COC(=O)C1=C(C)NC(C)=C(C(=O)OCCCc2ccccc2)C1c1cccc([N+](=O)[O-])c1 (stereo not shown) [E, 4(3-nitrophenyl)-2,6-dimethyl-1,4-dihydropyridine-3,5-dicarboxylic aci 3methyl ester 5(3-phenyl)-1-propyl ester, reference compound] | – | 0 | – | – | – | – |
| COC(=O)C1=C(C)NC(C)=C(C(=O)OCCC=Cc2ccccc2)C1c1cccc([N+](=O)[O-])c1 (stereo not shown) [Example 4, 4-phenyl-3-butenyl methyl 4-(3-nitrophenyl)-2,6-dimethyl-1,4-dihydropyridine-3,5-dicarboxylate] | 105 | 20 | > 2.83 | 1.3 | 63.3 | > 90 |
| COC(=O)C1=C(C)NC(C)=C(C(=O)OCCC=Cc2cccs2)C1c1cccc([N+](=O)[O-])c1 (stereo not drawn) [Example 11, 4-α-thienyl-3-butenyl methyl 4-(3-nitrophenyl)-2,6-dimethyl-1,4-dihydropyridine-3,5-dicarboxylate] | 200 | 25 | 4 | 1.6 | 60 | 100 |
| COC(=O)C1=C(C)NC(C)=C(C(=O)OC(C)C=Cc2ccccc2)C1c1cccc([N+](=O)[O-])c1 (stereo not shown) [Example 30, 1-methyl-3-phenyl-2-propenyl methyl 4-(3-nitrophenyl)-2,6-dimethyl-1,4-dihydropyridine-3,5-dicarboxylate] | 65 | 89 | > 4 | 5.0 | 75 | > 120 |
| CC=CC=CCOC(=O)C1=C(C)NC(C)=C(C(=O)OC(C)(C)C)C1c1cccc([N+](=O)[O-])c1 (stereo not shown) [Example 75, tert-butyl 2,4-hexadienyl 4-(3-nitrophenyl)-2,6-dimethyl-1,4-dihydropyridine-3,5-dicarboxylate] | – | – | – | 1 | 28 | – |
| CC=CC=CCOC(=O)C1=C(C)NC(C)=C(C(=O)OCC(C)C)C1c1cccc([N+](=O)[O-])c1 (stereo not shown) [Example 76, Isobutyl 2,4-hexadienyl 4-(3-nitrophenyl)-2,6-dimethyl-1,4-dihydropyridine-3,5-dicarboxylate] | – | – | – | 6 | 32 | – |
| C=C(C)COC(=O)C1=C(C)NC(C)=C(C(=O)OCC=CC=CC)C1c1cccc([N+](=O)[O-])c1 (stereo not shown) [Example 77, 2-methyl-2-propen-1-yl 2,4-hexadienyl 4-(3-nitrophenyl)-2,6-dimethyl-1,4-dihydropyridine-3,5-dicarboxylate] | – | – | – | 2 | 60 | – |
| CC=CC=CCOC(=O)C1=C(C)NC(C)=C(C(=O)OCC=CC)C1c1cccc([N+](=O)[O-])c1 (stereo not shown) [Example 78, 2-butenyl 2,4-hexadienyl 4-(3-nitrophenyl)-2,6-dimethyl-1,4-dihydropyridine-3,5-dicarboxylate] | – | – | – | 2.4 | 23 | – |
| C=CCCOC(=O)C1=C(C)NC(C)=C(C(=O)OCC=CC=CC)C1c1cccc([N+](=O)[O-])c1 (stereo not shown) [Example 79, 3-butenyl 2,4-hexadienyl 4-(3-nitrophenyl)-2,6-dimethyl-1,4-dihydropyridine-3,5-dicarboxylate] | – | – | – | 2.7 | 55 | – |
| C=CCOC(=O)C1=C(C)NC(C)=C(C(=O)OCC=CC=CC)C1c1cccc([N+](=O)[O-])c1 (stereo not shown) [Example 80, Allyl 2,4-hexadienyl 4-(3-nitrophenyl)-2,6-dimethyl-1,4-dihydropyridine-3,5-dicarboxylate] | – | – | – | 1.4 | 40 | – |
| CC=CC=CCOC(=O)C1=C(C)NC(C)=C(C(=O)OCCCC)C1c1cccc([N+](=O)[O-])c1 (stereo not shown) [Example 83, n-butyl 2,4-hexadienyl 4-(3-nitrophenyl)-2,6-dimethyl-1,4-dihydropyridine-3,5-dicarboxylate] | – | – | – | 2.6 | 45 | – |
| CC=CC=CCOC(=O)C1=C(C)NC(C)=C(C(=O)OCCC)C1c1cccc([N+](=O)[O-])c1 (stereo not shown) [Example 84, n-propyl 2,4-hexadienyl 4-(3-nitrophenyl)-2,6-dimethyl-1,4-dihydropyridine-3,5-dicarboxylate] | – | – | – | 2 | 35 | – |
| CC=CC=CCOC(=O)C1=C(C)NC(C)=C(C(=O)OCC2CC2)C1c1cccc([N+](=O)[O-])c1 (stereo not shown) [Example 85, Cyclopropylmethyl 2,4-hexadienyl 4-(3-nitrophenyl)-2,6-dimethyl-1,4-dihydropyridine-3,5-dicarboxylate] | – | – | – | 2.6 | 35 | – |
| Benzyl 2,4-hexadienyl 4-(2-furyl)-2,6-dimethyl-1,4-dihydropyridine-3,5-dicarboxylate [Example 81] | – | – | – | 2.0 | 25 | – |
